Results: paper PMC9701179, “New tricyclic systems as photosensitizers towards triple negative breast cancer cells” (Archives of Pharmacal Research, 2022)
Entries after “also recorded” stand apart in the source; their conditions may differ.

Experiments:
MDA-MB-231 cells [1] = assay: Cell death induction (Hoechst / PI staining, confocal microscopy); format: cell-based, human; settings: MDA-MB-231, IC50 doses, 24 h
Procedure: MDA-MB-231 cells were seeded into 8-well tissue-culture slides (BD Falcon, Bedford, MA, USA) at 5 × 10^4 cells/well (0.8 cm^2). After 24 h, the cells were washed twice with PBS and, following 24 h of treatment with IC50 doses of the tested compound, cells were stained for 5 min with 10 µg/mL of Hoechst 33258 (20-(4-hydroxyphenyl)-5-(4-methyl-1-piperazinyl)-2,50-bi-1H-benzimidazole trihydrochloride hydrate, Sigma-Aldrich, St.Louis, MI, USA) or propidium iodide (PI, Sigma-Aldrich, St.Louis, MI, USA) in PBS. Samples were examined at × 5 and × 40 magnification in a Zeiss LSM 800 confocal microscope using the Zeiss ZEN 2.3 software system.
(§1) Fig. 5 Effects on mitochondrial membrane potential (A) and cell death induction (B) in human breast MDA-MB-231 cancer cells. A Cells were treated with 7h and 8e and stained with TMRM (10 nM). Fluorescence was estimated at 490 nm (excitation) and 590 nm (emission). Data are the means of five independent experiments. Error bars indicate S.D. * P < 0.05. B Cells were treated with concentrations of 7h and 8e equal to IC50 for 24 h and stained with the fluorescent dyes Hoechst 33342 and PI
Loss of mitochondrial transmembrane potential is a crucial step in the activation of intrinsic apoptotic cell death. […] MDA-MB-231 cells were treated with IC50 doses of tested compounds and apoptotic cell death induction was confirmed through a Hoechst 33342 staining assay.

[2] = UVA photostability (UV-Vis spectra in PBS); format: physicochemical; settings: for Stability under UVA irradiation (UV-Vis spectra): 2.2 × 10^−5 M, increasing UVA doses 0–20 J/cm^2; for Photodegradation at the light dose of the cytotoxic experiments: UVA 2 J/cm^2, decrease of absorbance of main UV-Vis peaks (data not shown)
Procedure: Samples containing each compound (2.2 × 10^− 5 M) dissolved in PBS (0.04 M) were irradiated with increasing UVA doses from 0 to 20 J/cm^2 ([…], 5, 10, 15 and 20 J/cm^2), and their absorption spectrum was measured, with a Cary 50 Scan UV–Visible Spectrophotometer.
The most significant 7h and 8e pyridone derivatives were tested for their stability under UVA irradiation. […] Moreover, isosbestic points were visible, indicating the formation of one or more new stable species in equilibrium with the intact dark compound.
Fig. 6 UV–Vis Absorption spectra of 7h (left) and 8e (right) in PBS irradiated under 0, 2, 5, 10, 15 and 20 J/cm^2 with UVA light. 0 J/cm^2, red spectrum; 20 J/cm^2, light green spectrum

MDA-MB-231 cells [3] = assay: Mitochondrial membrane potential (Mito-ID kit); format: cell-based, human; settings: MDA-MB-231, UVA 2.0 J/cm^2; CCCP positive control
Procedure: The ΔΨ was assayed using the Mito-ID® Membrane Potential Kit according to the manufacturer’s instructions (Enzo Life Sciences, Farmingdale, NY, USA) as previously described. Briefly, MDA-MB-231 cells (8 × 10^3 per well) were seeded in 96-well plates; after 24 h, cells were washed with PBS and loaded with Mito-ID Detection Reagent for 30 min at 37 °C in the dark. Afterwards, cells were incubated with increasing concentrations of tested compounds for 90 min and after that exposed to UVA light (2.0 J/cm^2). CCCP (Carbonyl cyanide 3-chlorophenyl-hydrazone) was used as positive control. Fluorescence intensity was estimated using a VICTOR X3 (PerkinElmer, USA) plate reader at 490 (excitation) and 590 nm (emission).
Induction of ROS production can in turn prompt the collapse of mitochondrial membrane potential as well as loss of mitochondrial integrity and functioning. […] MDA-MB-231 TNBC cells were treated with tested compounds upon UVA irradiation and the percentage of cells with hypopolarized mitochondrial membrane potential was determined fluorometrically by means of the Mito-ID® Membrane Potential Kit.
as §1

MDA-MB-231 cells [4] = assay: Intracellular ROS production (CM-H2DCFDA) under UVA; format: cell-based, human; settings: MDA-MB-231, 25 µM, 90 min, UVA 2.0 J/cm^2; antimycin 3 µM positive control
Procedure: The production of ROS was measured in MDA-MB-231 cells (10^4 per well) grown for 24 h in a 96-well plate in RPMI medium without phenol red (Merk, Germany). Cells were then washed with PBS and loaded with 10 μM 5-(and-6)-chloromethyl-2′,7′-dichlorodihydrofluorescein diacetate acetyl ester (CM–H2DCFDA) (Molecular Probes-Invitrogen, Eugene, OR) for 45 min, in the dark. Afterwards, cells were washed with PBS and incubated with tested compounds (25 µM) for 90 min and after that exposed to UVA light (2.0 J/cm^2). Fluorescence increase was estimated utilizing the wavelengths of 485 nm (excitation) and 527 nm (emission) in a VICTOR X3 (PerkinElmer, USA) plate reader. Antimycin (3 μM, Merk), a potent inhibitor of Complex III in the electron transport chain, was used as positive control.
ROS production under light (UVA, 2.0 J/cm^2) was evaluated in MDA-MB-231 cell samples treated with increasing concentrations of tested compounds or antimycin, a potent inhibitor of Complex III of mitochondria electron chain, used as a positive control under the same experimental conditions (Fig. 4).
Fig. 4 Cellular ROS production (A) and total thiol redox state (B). A Effect of UVA activated tested compounds (25 µM) or antimycin (3 µM) on hydrogen peroxide formation in MDA-MB-231 cancer cells. B Sulfhydryl content in MDA-MB-231 cancer cells incubated for 24 h with UVA activated tested compounds. The sulfhydryl group amount was determined by the DTNB assay. Error bars indicate S.D

Compound | Apoptotic cell death induction (Hoechst 33342 staining) (MDA-MB-231 cells [1]) | Necrosis induction (PI staining) (MDA-MB-231 cells [1]) | Stability under UVA irradiation (UV-Vis spectra) [2] | Photodegradation at the light dose of the cytotoxic experiments [2] | Cells with depolarized mitochondria (mitochondrial membrane potential) (MDA-MB-231 cells [3]) | Cellular ROS production (hydrogen peroxide formation) (MDA-MB-231 cells [4])
CCOC(=O)c1ccc2n1CCc1cc(S(=O)(=O)c3ccccc3)c(OC)nc1-2 [Compound 7h, Ethyl 3-(benzenesulfonyl)-2-methoxy-5,6-dihydropyrrolo[1,2-h][1,7]naphthyridine-8-carboxylate] | positive to Hoechst 33342 staining | poor stained with PI | very unstable under light | photodegradation was very weak | significant increase of cells with depolarized mitochondria | highest increase in cellular ROS production; also recorded: hydrogen peroxide content comparable to that induced by antimycin
CCOC(=O)c1ccc2n1CCCc1cc(S(=O)(=O)c3ccccc3)c(OC)nc1-2 [Compound 8e, Ethyl 3-(benzenesulfonyl)-2-methoxy-6,7-dihydro-5H-pyrido[2,3-c]pyrrolo[1,2-a]azepine-9-carboxylate] | positive to Hoechst 33342 staining | poor stained with PI | very unstable under light | photodegradation was very weak | significant increase of cells with depolarized mitochondria | highest increase in cellular ROS production
